Read-outs that look alike come from different tables or passages of the source.
Key:
[1] = test system: human hippocampal stem cells differentiated for 3-4 weeks; assay: Neuroprotection against staurosporine-induced neurodegeneration; assay type: cell-based; conditions: 125 nM staurosporine, twenty-four hour, 10 μM agent; for inhibition at 10 µM: Homo sapiens, 24 h
Procedure: FIG. 7A is a bar graph illustrating an example of a neuroprotection profile of the compounds against staurosporine-induced human hippocampal neurodegeneration as indicated by loss of neurons after twenty-four hour treatment with staurosporine by counting the remaining number of neurons, an increase in […], and an increase in intracellular levels of activated caspase-3/-7 detected by immunostaining. Addition of 125 nM staurosporine solution to human hippocampal stem cells differentiated for 3-4 weeks causes neuronal injury and death. Effect of the […] treatment to inhibit the staurosporine-induced neuronal loss and injury are shown. Each bar represents n=6 wells of the mean+/−the SEM from a single experiment.
Effect of the compound treatment to inhibit the staurosporine-induced neuronal loss and injury are shown. Each bar represents n=6 wells of the mean+/−the SEM from a single experiment.
Agents that promote proliferation and neurogenesis are further evaluated for their ability to inhibit neurodegeneration and apoptosis of the human hippocampal multipotent stem cell-derived neurons. Neurodegeneration may be induced in culture using any number of inducers as known by those skilled in the art. Examples of neurodegenerative inducers include: staurosporine, hypoxia reperfusion, free radicals, glutamate agonists, activated monocyte supernatant, beta amyloid peptides and corticosteroids to name a few. Some of the neurogenic agents inhibit loss of neurons, inhibit caspase activation, inhibit nuclear fragmentation or condensation, inhibit lactate dehydrogenase activity among other effects on neurodegeneration. Using staurosporine as an example, 125 nM of a staurosporine solution is added along with 10 μM of one of the listed neurogenic agents to human hippocampal stem cells differentiated for 3-4 weeks.
A number of neurogenic agents inhibit neuronal loss, caspase-3 activity and/or nuclear fragmentation compared to staurosporine vehicle control. These NSI small molecule agents are all effective at in vitro neurogenesis as determined by methods described. More particularly, human hippocampal stem cells differentiated for a period of 3-4 weeks are treated with an agent for 8-24 hrs in a neuronal maintenance media prior to treatment with an apoptotic or neurodegenerative insults such as staurosporin, TNFα and LPS-stimulated monocyte supernatant and the like. Following the treatment period, media is removed from the treated cells and the cells are fixed and stained. Staining may include Hoechst stain, MAP-2ab (AP-20) antibody staining, active caspase-3 antibody or other measures of neurodegeneration and apoptosis. Instrumentation such as a Molecular Devices fluorescent plate reader or a […] Array Scan II instrument and the like may be used to measure the degeneration and apoptosis.
FIGS. 7A, 7B and 7C illustrate an example of a neuroprotection profile of tested compounds against staurosporine-induced human hippocampal neurodegeneration measured by the remaining number of neurons, an increase in nuclear fragmentation, and an increase in intracellular levels of activated caspase-3/-7 detected by immunostaining, respectively. Human hippocampal stem cells that have been differentiated for 3-4 weeks undergo a twenty-four hour treatment with 125 nM staurosporine solution to cause neuronal injury and death. The effect of the compound treatment to inhibit the staurosporine-induced neuronal loss and injury is shown in each of FIGS. 7A, 7B and 7C. Each bar represents n=6 wells of the mean+/−the SEM from a single experiment.

hippocampal stem cells = assay: Differentiation into mature neurons (BrdU+/MAP-2ab+), three-week treatment; assay type: cell-based, human; conditions: three weeks of continuous treatment; two-day BrdU pulse; FIG. 12
Procedure: FIG. 12 is a bar graph illustrating an example of differentiation into mature neurons as a percentage of control in response to a three-week treatment with the test compounds. Mitotic cells were labeled with BrdU. BrdU-positive cells were double-stained with the marker of mature neurons, anti-MAP-2 antibody. Total BrdU-immunostained cells and BrdU+/MAP-2ab+ co-stained cells indicating neurons were counted.
In FIG. 12 the exact number of dividing cells and neurons are determined to confirm that the increase in neurons is due to proliferation followed by differentiation. In FIG. 12, hippocampal stem cells are plated in a 96-well plate. The cells are then treated with one of the agents listed along with a two-day pulse of bromodeoxyuridine which is taken up into dividing cells thereby labeling mitotic cells with BrdU. After three weeks of continuous treatment with the listed agents, the cells are fixed and stained for BrdU immunoreactivity. BrdU-positive cells are double-stained with the marker of mature neurons, anti-MAP-2 to identify cells that have differentiated into mature neurons. The BrdU+/MAP-2ab+ co-stained cells which have differentiated into mature neurons are distinguished from control BrdU-immunostained cells which are proliferating stem cells.

[2] = test system: caspase-3 activation induced by beta amyloid peptide 25-35; assay: Apoptosis induced by beta amyloid peptide 25-35 (caspase-3); assay type: cell-based, human; conditions: FIG. 8
Text: (§1) FIG. 8 is a bar graph illustrating an example of a neuroprotection profile of the compounds against apoptosis, also known as programmed cell death, induced by beta amyloid peptide 25-35 as a model of Alzheimer's disease. Caspase-3 activation plays a central role in apoptosis and is an indicator of the occurrence of apoptosis if detected. […] Bars represent mean±SD from five wells.
Another assay used to determine the ability of a compound to provide neuroprotection is an apoptosis assay. Apoptosis is measured using the activity of an early matter of the programmed cell death pathway, caspase-3. Following 24 hours or 48 hours of apoptotic-induction in the presence and absence of compound treatment, the media is removed from the wells, and 50 μl cell lysis buffer is added to each well, 50 μl of 2× reaction buffer containing 10 mM DTT is then added to the lysate in each well. The contents of two wells are combined (for example: rows A/H, B/G, C/F, D/E), and 5 μl of substrate is added per well as recommended in the protocol for a caspase-3 fluorometric assay kit (Biovision) known in the art. The plate is incubated at 37° C. for 60 minutes. The contents of each well are then transferred to a fresh plate, and the fluorescence is determined with an […] using a fluorescent plate reader such as the Molecular Devices Gemini Fluorescent Plate Reader. Caspase-3 activity is expressed as μM of cleaved substrate per hour. Substrate concentration in μM is run for each plate to determine activity values for each treatment condition.
as §1, with “apoptosis” for “apoptosis, also known as programmed cell death,”, “25-35, part of a larger peptide found in plaques in Alzheimer's brains,” for “25-35”

[3] = read-out: Stauro % Inhib Nuclear Frag
[4] = read-out: Stauro % Inhib Caspase-3

SMILES | Stauro % Inhib Neuron Number [1] | Proliferation and differentiation into mature neurons (BrdU+/MAP-2ab+ cells) (hippocampal stem cells) | inhibition at 10 µM [1, 3] [%] | other results
CCCCNc1c(C2CCN(C(=O)CN(CC(C)C)S(C)(=O)=O)CC2)nc2cnccn12 [NSI-106] | 16 ± 19% |  |  | 
CS(=O)(=O)N1CCCCC1C(=O)NCc1ccc(Nc2c(C3CC3)nc3ccccn23)cc1 (centres unmarked) [NSI-127] |  | induce proliferation and then differentiation into neurons |  | 
COc1ccc(CCNc2ncc(C(N)=O)c(NC3CC3)n2)cc1OC [NSI-130] |  |  | 56 ± 17 | Inhibition of apoptosis induced by beta amyloid peptide 25-35 [2]: inhibit apoptosis
CCCNc1ncc(C(N)=O)c(NC2CCCC2)n1 [NSI-137] |  |  | 87 ± 41 | 
O=C(NC1CCN(Cc2ccccc2)CC1)c1cccnc1N1CCNCC1 [NSI-143] |  |  | 123 ± 77 | 
NC(=O)c1cnc(NCc2ccc(Cl)cc2)nc1NCC1CCCCC1 [NSI-144] |  | induce proliferation and then differentiation into neurons |  | Inhibition of apoptosis induced by beta amyloid peptide 25-35 [2]: inhibit apoptosis
CCCCNc1c(C2CCN(C(=O)c3ccc(C#N)cc3)CC2)nc2ccccn12 [NSI-149] | 47 ± 15% |  |  | 
NC(=O)C1CCCN1C(=O)c1cccnc1NCC1CCCCC1 (centres unmarked) [NSI-158] | 22 ± 18% |  |  | inhibition at 10 µM [1, 4]: 48 ± 14%
O=C(NCc1nc2ccccn2c1NCC1CCCO1)Oc1ccccc1 (centres unmarked) [NSI-182] |  |  | 85 ± 45 | inhibition at 10 µM [1, 4]: 108 ± 21%; Inhibition of apoptosis induced by beta amyloid peptide 25-35 [2]: inhibit apoptosis
O=C(COc1ccccc1)NCc1nc2ccccn2c1NCC1CCCO1 (centres unmarked) [NSI-183] |  | induce proliferation and then differentiation into neurons |  | 
CS(=O)(=O)N(CC(=O)NCc1nc2ccccn2c1NCc1ccccc1)c1ccccc1 [NSI-185] |  |  |  | Stauro % Inhib Nuclear Frag [1]: N/N
CC(C)CCNc1ncccc1C(=O)N1CCN(Cc2ccccc2)CC1 [NSI-189] | N/N |  |  | 
CCN(CCNC(=O)c1cccnc1NCCC(C)C)Cc1cccnc1 [NSI-190] | 32 ± 1% | induce proliferation and then differentiation into neurons | 42 ± 30 | 

— US8846914B2, “Compositions to effect neuronal growth” (Neuralstem, Inc., priority 2003, dated 2014)
